Measured values published in patent US6737383B1, “Herbicidal oxadiazolidines” (priority 1999, dated 2004).

Columns and labels:
[1] = system: velvetleaf; test: Test B pre/postemergence velvetleaf; assay type: in vivo, Abutilon theophrasti
How it was run: (§1)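 Test chemicals in a non-phytotoxic solvent mixture with surfactant were sprayed preemergence onto planted seeds and postemergence onto plants 2 to 18 cm tall (1- to 4-leaf stage). After twelve to sixteen days in a greenhouse, injury was visually rated against untreated controls from 0 (no effect) to 10 (complete control).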

[2] = system: bedstraw; test: Test B pre/postemergence bedstraw; assay type: in vivo, Galium aparine
How it was run: as §1

[3] = system: soybean; test: Test B pre/postemergence soybean; assay type: in vivo, Glycine max
How it was run: as §1

[4] = system: blackgrass; test: Test B pre/postemergence blackgrass; assay type: in vivo, Alopecurus myosuroides
How it was run: as §1

[5] = Preemergence, Rate 62 g/ha, scale 0 to 10 (0 no effect, 10 complete control)
[6] = Preemergence, Rate 125 g/ha, 0 is no effect, 10 is complete control
[7] = Preemergence, Rate 250 g/ha, scale 0 to 10, 0 is no effect, 10 is complete control
[8] = Preemergence, Rate 500 g/ha, scale 0 to 10 (0 no effect, 10 complete control)
[9] = Rate 62 g/ha, Postemergence, scale of 0 to 10 where 0 is no effect and 10 is complete control
[10] = Rate 250 g/ha, Postemergence, scale 0 to 10, 0 is no effect, 10 is complete control
[11] = Rate 500 g/ha, Postemergence, scale 0 to 10
[12] = Postemergence, Rate 125 g/ha, scale of 0 to 10 where 0 is no effect and 10 is complete control
[13] = Rate 500 g/ha, Postemergence, scale 0 to 10, 0 no effect, 10 complete control
[14] = Postemergence, Rate 62 g/ha, scale 0 to 10, 0 is no effect, 10 is complete control
[15] = Postemergence, Rate 250 g/ha, scale 0 to 10, 0 no effect, 10 complete control
[16] = Preemergence, Rate 125 g/ha, scale 0 to 10 (0 no effect, 10 complete control)
[17] = Preemergence, Rate 250 g/ha, scale of 0 to 10 where 0 is no effect and 10 is complete control
[18] = Preemergence, Rate 500 g/ha, scale 0 (no effect) to 10 (complete control)
[19] = Rate 125 g/ha, Postemergence, scale 0 to 10, 0 no effect, 10 complete control
[20] = Preemergence, Rate 62 g/ha, scale of 0 to 10 where 0 is no effect and 10 is complete control
[21] = Preemergence, Rate 500 g/ha, scale of 0 to 10 where 0 is no effect and 10 is complete control
[22] = Rate 125 g/ha, Postemergence, scale of 0 to 10 where 0 is no effect and 10 is complete control
[23] = Rate 125 g/ha, Preemergence, scale of 0 to 10 where 0 is no effect and 10 is complete control
[24] = Rate 250 g/ha, Postemergence, scale of 0 to 10 where 0 is no effect and 10 is complete control
[25] = Rate 125 g/ha, Postemergence, scale 0 to 10
[26] = Postemergence, Rate 250 g/ha, scale of 0 to 10, 0 is no effect, 10 is complete control
[27] = Postemergence, Rate 500 g/ha, scale of 0 to 10 where 0 is no effect and 10 is complete control
[28] = Preemergence, Rate 125 g/ha, scale of 0 to 10 where 0 is no effect and 10 is complete control
[29] = Postemergence, Rate 1000 g/ha, scale 0 to 10 (0 no effect, 10 complete control)
[30] = Rate 1000 g/ha, Preemergence, scale 0 to 10 (0 no effect, 10 complete control)
[31] = Rate 500 g/ha, Postemergence, 0 to 10 scale (0 no effect, 10 complete control)

CCN(CC)C(=O)n1oc(=O)n(Cc2ccccc2)c1=O [Compound 152]
2: Blackgrass plant response rating [4, 11]
0: Velvetleaf plant response rating [1, 5] | Velvetleaf plant response rating (0 to 10 scale) [1, 6] | Velvetleaf plant response rating [1, 7] | Velvetleaf plant response rating [1, 8] | Velvetleaf plant response rating [1, 9] | Plant response rating, Velvetleaf [1, 10] | Velvetleaf plant response rating [1, 11] | Bedstraw plant response rating [2, 12] | Bedstraw plant response rating [2, 5] | Bedstraw plant response rating (0 to 10 scale) [2, 6] | Bedstraw plant response rating [2, 7] | Bedstraw plant response rating [2, 8] | Bedstraw plant response rating [2, 9] | Plant response rating, Bedstraw [2, 10] | Bedstraw plant response rating [2, 13] | Soybean plant response rating [3, 12] | Soybean plant response rating [3, 5] | Soybean plant response rating (0 to 10 scale) [3, 6] | Soybean plant response rating [3, 7] | Soybean plant response rating [3, 8] | Soybean plant response rating [3, 9] | Blackgrass plant response rating [4, 12] | Blackgrass plant response rating [4, 5] | Blackgrass plant response rating (0 to 10 scale) [4, 6] | Blackgrass plant response rating [4, 7] | Blackgrass plant response rating [4, 9] | Plant response rating, Blackgrass [4, 10]
1: Plant response rating, Soybean [3, 10] | Soybean plant response rating [3, 11]
3: Blackgrass plant response rating [4, 8]

CC(C)N(C(=O)n1oc(=O)n(Cc2ccccc2)c1=O)c1ccc(F)cc1F [Compound 79]
2: Soybean plant response rating [3, 13] | Plant response rating, Blackgrass [4, 16]
6: Plant response rating, Blackgrass [4, 17] | Blackgrass plant response rating [4, 18]
0: Velvetleaf plant response rating [1, 14] | Velvetleaf plant response rating [1, 15] | Velvetleaf plant response rating [1, 5] | Plant response rating, Velvetleaf [1, 16] | Plant response rating, Velvetleaf [1, 17] | Velvetleaf plant response rating [1, 19] | Bedstraw plant response rating [2, 5] | Plant response rating, Bedstraw [2, 16] | Plant response rating, Bedstraw [2, 17] | Bedstraw plant response rating [2, 18] | Soybean plant response rating [3, 14] | Soybean plant response rating [3, 5] | Plant response rating, Soybean [3, 16] | Plant response rating, Soybean [3, 17] | Soybean plant response rating [3, 18] | Blackgrass plant response rating [4, 14] | Blackgrass plant response rating [4, 5] | Blackgrass plant response rating [4, 19]
1: Soybean plant response rating [3, 15] | Soybean plant response rating [3, 19]
7: Bedstraw plant response rating [2, 15]
3: Velvetleaf plant response rating [1, 18] | Velvetleaf plant response rating [1, 13] | Bedstraw plant response rating [2, 14] | Bedstraw plant response rating [2, 19] | Blackgrass plant response rating [4, 15] | Blackgrass plant response rating [4, 13]
8: Bedstraw plant response rating [2, 13]

CC(C)N(C(=O)n1oc(=O)n(-c2ccsc2)c1=O)c1ccc(F)cc1 [Compound 272]
6: Blackgrass plant response rating [4, 13]
2: Plant response rating, Blackgrass [4, 24]
3: Plant response rating, Bedstraw [2, 21]
0: Velvetleaf plant response rating [1, 20] | Velvetleaf plant response rating [1, 17] | Plant response rating, Velvetleaf [1, 21] | Velvetleaf plant response rating [1, 22] | Velvetleaf plant response rating [1, 23] | Plant response rating, Velvetleaf [1, 24] | Velvetleaf plant response rating [1, 13] | Bedstraw plant response rating [2, 20] | Bedstraw plant response rating [2, 17] | Bedstraw plant response rating [2, 9] | Bedstraw plant response rating [2, 22] | Bedstraw plant response rating [2, 23] | Plant response rating, Bedstraw [2, 24] | Soybean plant response rating [3, 20] | Soybean plant response rating [3, 17] | Plant response rating, Soybean [3, 21] | Soybean plant response rating [3, 23] | Blackgrass plant response rating [4, 20] | Blackgrass plant response rating [4, 17] | Plant response rating, Blackgrass [4, 21] | Blackgrass plant response rating [4, 9] | Blackgrass plant response rating [4, 22] | Blackgrass plant response rating [4, 23]
1: Soybean plant response rating [3, 22] | Plant response rating, Soybean [3, 24] | Soybean plant response rating [3, 13]
4: Bedstraw plant response rating [2, 13]

CCCCc1ccc(N(C(=O)n2oc(=O)n(-c3ccccc3C)c2=O)C(C)C)cc1 [Compound 229]
1: Plant response rating (0 to 10; 0 is no effect, 10 is complete control), Soybean ([3]; Rate 250 g/ha, Postemergence)
0: Velvetleaf plant response rating [1, 20] | Velvetleaf plant response rating [1, 17] | Plant response rating, Velvetleaf [1, 21] | Velvetleaf plant response rating [1, 9] | Velvetleaf plant response rating [1, 25] | Velvetleaf plant response rating [1, 23] | Plant response rating (0 to 10; 0 is no effect, 10 is complete control), Velvetleaf ([1]; Rate 250 g/ha, Postemergence) | Bedstraw plant response rating [2, 20] | Bedstraw plant response rating [2, 17] | Plant response rating, Bedstraw [2, 21] | Bedstraw plant response rating [2, 9] | Bedstraw plant response rating [2, 25] | Bedstraw plant response rating [2, 23] | Plant response rating (0 to 10; 0 is no effect, 10 is complete control), Bedstraw ([2]; Rate 250 g/ha, Postemergence) | Bedstraw plant response rating [2, 13] | Soybean plant response rating [3, 20] | Soybean plant response rating [3, 17] | Plant response rating, Soybean [3, 21] | Soybean plant response rating [3, 9] | Soybean plant response rating [3, 25] | Soybean plant response rating [3, 23] | Blackgrass plant response rating [4, 20] | Blackgrass plant response rating [4, 17] | Plant response rating, Blackgrass [4, 21] | Blackgrass plant response rating [4, 9] | Blackgrass plant response rating [4, 25] | Blackgrass plant response rating [4, 23] | Plant response rating (0 to 10; 0 is no effect, 10 is complete control), Blackgrass ([4]; Rate 250 g/ha, Postemergence) | Blackgrass plant response rating [4, 13]
2: Velvetleaf plant response rating [1, 13] | Soybean plant response rating [3, 13]

CCC(C)n1c(=O)on(C(=O)N(c2ccccc2)C(C)C)c1=O (stereo not shown) [Compound 612]
6: Plant response rating, Velvetleaf [1, 27] | Velvetleaf plant response rating [1, 5] | Bedstraw plant response rating [2, 26]
7: Velvetleaf plant response rating [1, 28] | Soybean plant response rating [3, 26] | Plant response rating, Blackgrass [4, 14]
9: Plant response rating, Bedstraw [2, 27] | Plant response rating, Blackgrass [4, 12] | Blackgrass plant response rating [4, 26]
4: Plant response rating, Soybean [3, 14]
8: Plant response rating, Velvetleaf [1, 21] | Plant response rating, Soybean [3, 27] | Blackgrass plant response rating [4, 5]
10: Bedstraw plant response rating [2, 21] | Plant response rating, Blackgrass [4, 27] | Blackgrass plant response rating [4, 28] | Blackgrass plant response rating (0 to 10 scale) ([4]; Preemergence, Rate 250 g/ha) | Blackgrass plant response rating [4, 21]
5: Plant response rating, Soybean [3, 12]
2: Plant response rating, Velvetleaf [1, 14]
3: Plant response rating, Velvetleaf [1, 12] | Velvetleaf plant response rating [1, 26] | Plant response rating, Bedstraw [2, 14] | Plant response rating, Soybean [3, 21]
0: Soybean plant response rating [3, 5] | Soybean plant response rating [3, 28]

CC(C)N(C(=O)n1oc(=O)n(-c2ccc(Cl)cc2Cl)c1=O)c1ccc(F)cc1 [Compound 7, 4-(2,4-Dichlorophenyl)-N-(4-fluorophenyl)-N-(1-methylethyl)-3,5-dioxo-1,2,4-oxadiazolidine-2-carboxamide]
6: Blackgrass plant response rating [4, 29]
0: Velvetleaf plant response rating [1, 15] | Velvetleaf plant response rating [1, 29] | Plant response rating, Velvetleaf [1, 16] | Plant response rating, Velvetleaf [1, 17] | Velvetleaf plant response rating [1, 18] | Velvetleaf plant response rating [1, 19] | Plant response rating, Velvetleaf [1, 30] | Bedstraw plant response rating [2, 15] | Plant response rating, Bedstraw [2, 16] | Plant response rating, Bedstraw [2, 17] | Bedstraw plant response rating [2, 18] | Bedstraw plant response rating [2, 19] | Bedstraw plant response rating [2, 31] | Plant response rating, Bedstraw [2, 30] | Plant response rating, Soybean [3, 16] | Plant response rating, Soybean [3, 17] | Soybean plant response rating [3, 18] | Soybean plant response rating [3, 19] | Plant response rating, Soybean [3, 30] | Plant response rating, Blackgrass [4, 16] | Plant response rating, Blackgrass [4, 17] | Blackgrass plant response rating [4, 18] | Blackgrass plant response rating [4, 19]
5: Soybean plant response rating [3, 29]
1: Soybean plant response rating [3, 15]
3: Blackgrass plant response rating [4, 31]
4: Bedstraw plant response rating [2, 29]
2: Blackgrass plant response rating [4, 15] | Plant response rating, Blackgrass [4, 30]
